Literature values in patent US11752221B2, “Brush-arm star polymer imaging agents and uses thereof” (priority 2017, dated 2023).
“And” between values parts separate entries of the source, which are not always exact repeats. Identical values can stand only once. Like-named read-outs stand apart in the source and are kept apart here.

Columns and labels:
[1] = 0.2 mM nitroxide, 4.0 mM Asc
[2] = earlier studies
subcutaneous C26 tumors = conditions: 0.23 mmol Gd/kg iv dose, after 4 hours

| SMILES | Initial kinetics (<1 h) k × 10^4 ([1]; 0.0 mM GSH, data used IPH) | Initial kinetics (<1 h) k′ × 10^4 ([1]; 0.0 mM GSH, data used IPH) | Initial kinetics Avg k × 10^4 ([1]; 0.0 mM GSH, data used IPH) [M^−1 s^−1] | Initial kinetics (<1 h) k × 10^4 ([1]; 0.0 mM GSH, data used PH) | Initial kinetics (<1 h) k′ × 10^4 ([1]; 0.0 mM GSH, data used PH) | Initial kinetics Avg k × 10^4 ([1]; 0.0 mM GSH, data used PH) [M^−1 s^−1] | Late kinetics (>1 h) k × 10^4 ([1]; 0.0 mM GSH, data used PH) [M^−1 s^−1] | Late kinetics (>1 h) k′ × 10^4 ([1]; 0.0 mM GSH, data used PH) [s^−1] | Initial kinetics (<1 h) k × 10^4 ([1]; 5.0 mM GSH, data used IPH) | Initial kinetics (<1 h) k′ × 10^4 ([1]; 5.0 mM GSH, data used IPH) | Initial kinetics Avg k × 10^4 ([1]; 5.0 mM GSH, data used IPH) [M^−1 s^−1] | Initial kinetics (<1 h) k × 10^4 ([1]; 5.0 mM GSH, data used PH) | Initial kinetics (<1 h) k′ × 10^4 ([1]; 5.0 mM GSH, data used PH) | Initial kinetics Avg k × 10^4 ([1]; 5.0 mM GSH, data used PH) [M^−1 s^−1] | r1 (per-chex for chex polymers) [2] [mM⁻¹ s⁻¹] | contrast enhancement of tumor (subcutaneous C26 tumors) |
| --- | --- | --- | --- | --- | --- | --- | --- | --- | --- | --- | --- | --- | --- | --- | --- | --- |
| CC1(C)CC(C(=O)O)C(C)(C)N1[O] (stereo not shown) [3-CP, 3-carboxy-2,2,5,5-tetramethyl-1-pyrrolidinyloxy] | 636.8 M^−1 s^−1 and 624.5 M^−1 s^−1 and 614.8 M^−1 s^−1 | 2.547 s^−1 and 2.498 s^−1 and 2.459 s^−1 | 625 ± 22 | 636.0 M^−1 s^−1 and 599.0 M^−1 s^−1 and 597.3 M^−1 s^−1 | 2.504 s^−1 and 2.396 s^−1 and 2.389 s^−1 | 611 ± 44 | 295 | 1.18 | 608.8 M^−1 s^−1 and 609.6 M^−1 s^−1 and 605.6 M^−1 s^−1 | 2.435 s^−1 and 2.438 s^−1 and 2.423 s^−1 | 608.0 ± 4.2 | 590.3 M^−1 s^−1 and 602.4 M^−1 s^−1 and 615.2 M^−1 s^−1 | 2.361 s^−1 and 2.410 s^−1 and 2.461 s^−1 | 602.6 ± 25 | 0.14 |  |
| O=C([O-])CN(CCN(CC(=O)[O-])CC(=O)O)CCN(CC(=O)[O-])CC(=O)O.[Gd+3] [Gd-DTPA] |  |  |  |  |  |  |  |  |  |  |  |  |  |  |  | negligible contrast enhancement |
